The record followed here is PubChem BioAssay (NCI).

Holding throughout (assay): growth of human tumour cells (NCI), 48 h
For assay [1], the system named is HCT-116 colon.
Assay [2] relates to UACC-62 melanoma.
Assay [3] deals with IGROV1 ovarian.
The test system of assay [4] is ACHN renal.
The subject of assay [5] is HT29 colon.
Assay [6] concerns U251 CNS.
Assay [7] deals with MDA-MB-435.
In assay [8] the test system is PC-3 prostate.

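Each compound was tested at five concentrations against cells in 96-well plates for 48 hours. Abbreviation: GI50, concentration required for 50% inhibition of growth. TGI: total growth inhibition.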

In the case of `Oc1ccc(N=Nc2nccs2)c(O)c1`, the GI50 in assay [1] was 2.92 µM; in assay [2] it was 4.6 µM; in assay [3], 4.14 µM; in assay [4], 2.96 µM; in assay [5], 3.61 µM; in assay [6], 4.5 µM. Moreover, the GI50 in assay [7] was 4.77 µM; in assay [8] it was 8.08 µM. The TGI in assay [1] came to 8.95 µM; in assay [2], 17.6 µM; in assay [3], 15.2 µM; in assay [4], 33.8 µM; in assay [5] it was 23.1 µM; in assay [6], 35.2 µM. Further, the TGI in assay [7] is 31 µM; in assay [8], 48.8 µM.
As for `Oc1ccc(/C=C/c2cc(O)cc3c2C(c2cc(O)cc(O)c2)C(c2ccc(O)c(O)c2)O3)cc1` (stereo unspecified), the TGI was greater than 100 µM in assay [1]; 42.4 µM in assay [2]; greater than 100 µM in assay [3]; 33.8 µM in assay [4]; 47.6 µM in assay [5]; greater than 100 µM in assay [6]. In addition, the TGI in assay [7] and in assay [8] was greater than 100 µM each time.
For the compound `CC(C)(C)c1cc(C(=O)/C=C/c2ccc(C(=O)O)cc2)cc(C(C)(C)C)c1`, the TGI in assay [1] came out at 10.4 µM; in assay [2], 4.67 µM; in assay [3] it was 12.2 µM; in assay [4], 15.5 µM; in assay [5], 13.2 µM; in assay [6] it was 11.2 µM. Also, the TGI was 6.66 µM in assay [7] and 16.4 µM in assay [8].
In the case of `CC(=O)[CH-]C(=O)c1ccccc1.CC(=O)[CH-]C(=O)c1ccccc1.O=S(=O)([O-])c1cc([O-])c2c([O-])cc(S(=O)(=O)[O-])cc2c1.[Na+].[Ti+4]`, the GI50 is greater than 100 µM in assay [1]; greater than 100 µM in assay [2]; greater than 100 µM in assay [3]; greater than 100 µM in assay [4]; greater than 100 µM in assay [5]; 97.8 µM in assay [6]. Moreover, the TGI in assay [1], in assay [2], in assay [3], in assay [4], in assay [5] and in assay [6] was greater than 100 µM throughout.
As for `CNCCn1c(=O)c2cc(OC)c(OC)cc2c2cnc3cc4c(cc3c21)OCO4`, the GI50 in assay [1] was less than 0.01 µM; in assay [3], 0.0276 µM; in assay [4], less than 0.01 µM; in assay [5], 0.0119 µM; in assay [6], less than 0.01 µM; in assay [7], 0.0189 µM. Moreover, the GI50 in assay [8] is 0.021 µM. Also, the TGI is 0.135 µM in assay [1]; 1.76 µM in assay [3]; 1.12 µM in assay [4]; 0.11 µM in assay [5]; 0.0242 µM in assay [6]; 2.02 µM in assay [7]. The same compound had a TGI in assay [8] of 1.87 µM.
With `COc1cc(C(=O)O[C@H](C(N)=O)[C@]2(C)CO2)c2cccc(C)c2c1`, the GI50 in assay [1] was 0.431 µM; in assay [2] it was 0.02 µM; in assay [3], less than 0.01 µM; in assay [5], less than 0.0418 µM; in assay [7] it was less than 0.0215 µM. In addition, the TGI in assay [1] worked out at 2.32 µM; in assay [2], 0.154 µM; in assay [3] it was 0.0567 µM; in assay [7], 0.126 µM; in assay [8] it was 2.76 µM.
Take `c1ccc2c(c1)c1ccccc1c1ccccc21`: the GI50 in assay [1], in assay [2], in assay [3], in assay [4], in assay [5] and in assay [6] was greater than 100 µM in each case. In addition, the GI50 in assay [7] and in assay [8] was greater than 100 µM in each case. For the same compound, the TGI in assay [1], in assay [2], in assay [3], in assay [4], in assay [5] and in assay [6] was greater than 100 µM in each case. Moreover, the TGI in assay [7] and in assay [8] was greater than 100 µM each time.
For the compound `Nc1c(C(=O)Nc2ccccc2Cl)sc2nc3c(cc12)C(=O)CCC3`, the GI50 in assay [1] was 54.9 µM; in assay [2], 0.789 µM; in assay [3], greater than 100 µM; in assay [4] it was 15.9 µM; in assay [5] it was 0.61 µM; in assay [6] it was 4.18 µM. The GI50 in assay [7] is 0.137 µM; in assay [8], 1.16 µM. Besides, the TGI in assay [1], in assay [2], in assay [3], in assay [4], in assay [5] and in assay [6] was greater than 100 µM each time. Also, the TGI in assay [7] was 0.349 µM; in assay [8], greater than 100 µM.
Take `Clc1nc(Cl)c2ncn(Cc3ccccc3Cn3cnc4c(Cl)nc(Cl)nc43)c2n1`: the GI50 in assay [1] is 2.06 µM; in assay [2] it was 1.66 µM; in assay [3], 3.14 µM; in assay [4], 1.59 µM; in assay [5], 2.13 µM; in assay [6], 2.05 µM. Besides, the GI50 in assay [7] was 2.31 µM; in assay [8] it was 2.04 µM. Moreover, the TGI in assay [1] was determined as 5.98 µM; in assay [2], 3.25 µM; in assay [3], 8.46 µM; in assay [4], 2.96 µM; in assay [6] it was 4.63 µM; in assay [7], 5.58 µM. Besides, the TGI in assay [8] was 5.53 µM.
For the compound `Cc1sc2c(c1C)C(c1ccc(Cl)cc1)=N[C@@H](CC(=O)Nc1ccc(OCCOCCOCCOCCNc3cccc4c3C(=O)N(C3CCC(=O)NC3=O)C4=O)cc1)c1nnc(C)n1-2` (stereo partly specified), the TGI in assay [1], in assay [2], in assay [3], in assay [4], in assay [5] and in assay [6] was greater than 100 µM each time. Besides, the TGI in assay [7] and in assay [8] was greater than 100 µM throughout. The GI50 in assay [2] is less than 0.0462 µM; in assay [4], 0.753 µM; in assay [5], 0.314 µM; in assay [6], 0.476 µM; in assay [7] it was less than 0.0453 µM; in assay [8] it was less than 0.02 µM.
With `N#CC(C#N)=C1CCCOc2c1ccc1ccccc21`, the GI50 in assay [1], in assay [2], in assay [3], in assay [4], in assay [5] and in assay [7] was greater than 100 µM throughout. Further, the GI50 in assay [8] is 39.8 µM. For the same compound, the TGI in assay [1], in assay [2], in assay [3], in assay [4], in assay [5] and in assay [7] was greater than 100 µM each time. In assay [8], the TGI is greater than 100 µM.
`COC(=O)[C@]12CC[C@@H](C)[C@H](C)[C@@H]1C1=CC[C@@H]3[C@@]4(C)C(C=O)=C[C@@](C)(COC(=O)c5ccco5)[C@@H]4[C@H](O)C[C@@]3(C)[C@]1(C)CC2`: the GI50 was 1.19 µM in assay [1]; 0.382 µM in assay [2]; 3.03 µM in assay [3]; 1.13 µM in assay [4]; 1.81 µM in assay [5]; 1.41 µM in assay [6]. The GI50 in assay [8] was 1.29 µM. Besides, the TGI was 2.59 µM in assay [1]; 2.22 µM in assay [2]; greater than 100 µM in assay [3]; 3.78 µM in assay [4]; 4.14 µM in assay [5]; 2.91 µM in assay [6]. The compound also showed a TGI in assay [8] of 7.55 µM.
Take `COc1cc(/C=C2\CCC/C(=C\c3ccc(OCC4CO4)c(OC)c3)C2=O)ccc1OCC1CO1` (stereo unspecified): the GI50 in assay [1] is 1.85 µM; in assay [2] it was 2.02 µM; in assay [3], 2.87 µM; in assay [5] it was 2.25 µM; in assay [6] it was 2.11 µM; in assay [8] it was 3.13 µM. In addition, the TGI is 6.01 µM in assay [1]; 4.8 µM in assay [2]; 7.07 µM in assay [3]; 4.62 µM in assay [5]; 5.27 µM in assay [6]; 45.7 µM in assay [8].
On to `CCOC(=O)c1sc(NC(=O)COc2cccc(/C=C3\CCc4cc(OC)ccc4C3=O)c2)nc1C`, for which the GI50 is 3.18 µM in assay [1]; 5.43 µM in assay [2]; 3.02 µM in assay [3]; 6 µM in assay [4]; 3.71 µM in assay [5]; 2.98 µM in assay [6]. For the same compound, in assay [7], the GI50 was 2.25 µM. Moreover, the TGI was greater than 100 µM in assay [1]; greater than 100 µM in assay [2]; 21 µM in assay [3]; greater than 100 µM in assay [4]; greater than 100 µM in assay [5]; 9.13 µM in assay [6]. In assay [7], the TGI was greater than 100 µM.
`CN(C)CCNc1nc2ccccc2c2c(=O)c3cc(F)ccc3sc12`: the GI50 in assay [1] was 1.58 µM; in assay [2], 1.73 µM; in assay [3] it was 1.53 µM; in assay [4], 1.65 µM; in assay [5], 1.68 µM; in assay [7] it was 1.66 µM. Besides, in assay [8], the GI50 was 1.7 µM. Further, the TGI in assay [1] was 3.08 µM; in assay [2], 3.18 µM; in assay [3] it was 2.99 µM; in assay [4] it was 3.01 µM; in assay [5], 3.48 µM; in assay [7] it was 3.06 µM. This compound yielded a TGI in assay [8] of 3.37 µM.
As for `COC(=O)c1c[nH]cc1CCCCc1c[nH]cc1C(=O)OC`, the TGI in assay [1], in assay [3], in assay [4], in assay [5] and in assay [6] was greater than 100 µM throughout.
Turning to `Cc1cc(NCCCCNc2ccnc3cc(Cl)ccc23)nc(Nc2ccc(C(=O)N3CCCCC3)cc2)n1`, the GI50 in assay [3] is 2.27 µM; in assay [4] it was 3.01 µM; in assay [5], 1.78 µM; in assay [6], 1.78 µM; in assay [7], 1.82 µM; in assay [8] it was 1.32 µM. Further, the TGI in assay [3] amounted to 6.22 µM; in assay [4], 9.28 µM; in assay [5], 4.62 µM; in assay [6], 3.56 µM; in assay [7], 3.42 µM; in assay [8], 3.24 µM.
Consider `O=C(NC1CCCCC1)c1ccc(Nc2ncnc3c2cnn3-c2ccccc2)cc1`, for which the GI50 was 4.01 µM in assay [1]; 17.5 µM in assay [2]; 14.4 µM in assay [3]; 3.32 µM in assay [4]; 67.8 µM in assay [7]; 11.8 µM in assay [8]. Moreover, the TGI in assay [1] was greater than 100 µM; in assay [2] it was greater than 100 µM; in assay [3], 65.9 µM; in assay [4], 11 µM; in assay [7], greater than 100 µM; in assay [8], 44.8 µM.
As for `CCc1nc(Cl)c(Cl)c(Cl)n1`, the TGI in assay [2], in assay [3], in assay [4], in assay [5], in assay [6] and in assay [7] was greater than 100 µM in each case. Moreover, the TGI in assay [8] is greater than 100 µM.
For `COc1cc(/C=C/C(=O)C(C(=O)/C=C/c2ccc(OC(=O)CCNC34CC5CC(CC(C5)C3)C4)c(OC)c2)C(=O)CCNC23CC4CC(CC(C4)C2)C3)ccc1OC(=O)CCNC12CC3CC(CC(C3)C1)C2` (stereo unspecified), the GI50 in assay [1] is 2.94 µM; in assay [2], 3.37 µM; in assay [4], 4.03 µM; in assay [5], 1.69 µM; in assay [6] it was 3.25 µM; in assay [7], 2.88 µM. The GI50 in assay [8] was 3.86 µM. Moreover, the TGI worked out at 10.7 µM in assay [1]; 13.3 µM in assay [2]; 34.1 µM in assay [4]; 3.24 µM in assay [5]; 11.3 µM in assay [6]; 35.3 µM in assay [7]. For the same compound, the TGI in assay [8] came out at 25.1 µM.
Consider `C=CCn1c(SCC(=O)Nc2ccc(C(=O)/C=C/c3cc(OC)c(OC)c(OC)c3)cc2)nnc1-c1ccc(OC)cc1`, for which the GI50 in assay [1] was 0.223 µM; in assay [2] it was 0.865 µM; in assay [3], 0.324 µM; in assay [5], 0.237 µM; in assay [6] it was 0.289 µM; in assay [7] it was 0.327 µM. Moreover, the GI50 in assay [8] was 0.642 µM. The TGI was 0.52 µM in assay [1]; 3.78 µM in assay [2]; 1.9 µM in assay [3]; 0.532 µM in assay [5]; 0.939 µM in assay [6]; 1.6 µM in assay [7]. The compound further had a TGI in assay [8] greater than 100 µM.
